Measured values taken from patent US11986482B2, “Method of promoting antitumor or anti-cancer immunity” (City University of Hong Kong, priority 2021, dated 2024).

Tests used:
PD-L1 = experiment: Western blot of PD-L1 in total cell lysates and exosomes of HeLa cells; format: cell-based; settings: for 6J1-induced exosomal PD-L1 secretion: 1 μM, 24 h
Procedure: PD-L1 has been previously shown to be secreted outside the cell through exosomes. HeLa cells are plated on coverslips in 24-well plates and stained with the anti-PD-L1 antibody on ice for 1 h. At the indicated times after being incubated at a warm medium at 37° C., cells are fixed and stained with antibodies against CD63 or Rab27a. […] Cells are treated with or without ionomycin (1 μM) for 48 h. The supernatant is collected and subjected to western blot analysis. […] Since the amphisome, which is formed by the fusion of the autophagosome with the MVB/late endosome, has been implicated in extracellular vesicles secretion, and PD-L1 is found to be associated with LC3B during PD-L1 trafficking (FIG. 2a), inventors examine whether the autophagosome formation is involved in exosomal PD-L1 secretion. Thus, inventors knock out the expression of Rab27A, LC3B or ATG4B in HeLa cells and collect their supernatant respectively for western blot analysis.
Furthermore, HeLa cells are treated with or without Bafilomycin A1 (10 nM), or Torin 1 (100 nM) for 48 h. The cell lysates and supernatant are collected for western blot analysis. […] In contrast, Torin1, an autophagy activator, has little effect on total and exosomal PD-L1 levels (FIG. 2g). […] On the other hand, blockage on the fusion between lysosomes and late endosomes or autophagosomes may induce PD-L1 secretion via exosomes.
It has previously been shown that interfering with endosomal trafficking promotes exosome secretion. Moreover, PD-L1 has been reported to be enriched in exosomes and secreted outside the cell. Thus, inventors speculate that 6J1 may induce the secretion of the PD-L1 trapped in the endosomal compartments via exosomes. To determine whether 6J1 may induce the secretion of PD-L1 via exosomes, HeLa cells are treated with or without 6J1 (1 μM) for 24 h. The supernatant is collected. Inventors purify the exosomes from the supernatant of HeLa cells by sequential centrifugation. The concentration of extracellular vesicle is determined using a Nanosight nanoparticle analyzer. And HeLa cells are treated with or without 6J1 (1 μM) for 48 h. The cell and supernatant are collected for Western Blot analysis. […] Moreover, the activity of Rab27a in HeLa cells treated with or without 6J1 (1 μM) is examined with a GST-SHD pulldown assay.
Moreover, ATG5- or LC3-knockout HeLa cells are treated with or without 6J1 (1 μM) for 24 h. The supernatant is collected, and the concentration of the extracellular vesicle is determined using a Nanosight nanoparticle analyzer. The exosomes are also collected and subjected to western blot analysis of the EVs marker and PD-L1 in FIG. 7a. The live cells are also labeled with an anti-PD-L1 antibody in FIG. 7b and subjected to flow cytometry analysis in FIG. 7c. […] In addition, inventors assess whether other autophagy-related genes, e.g., ATG4B, ATG7, Beclin1, and Vps34 are involved in 6J1-mediated exosomal PD-L1 secretion. ATG4B-, ATG7-, Beclin1-, or VPS34-knockout HeLa cells are treated with or without 6J1 (1 μM) for 24 h. The supernatant is collected, and the concentration of extracellular vesicle is determined using a Nanosight nanoparticle analyzer. The exosomes are also collected and subjected to western blot analysis of the EVs marker and PD-L1 in FIG. 7d. The live cells are also labeled with an anti-PD-L1 antibody and subjected to flow cytometry analysis in FIG. 7e.

LL/2 cells = experiment: LL/2 mouse lung cancer model in C57BL mice; format: in vivo; settings: 30 mg/kg, daily, oral gavage, 4 weeks
Procedure: C57BL mice (n=5) are injected subcutaneously with LL/2 cells. After tumors reach around 5 mm in size, the mice are treated with either buffer (PBS) or 6J1 (30 mg/kg, daily, oral gavage) for 4 weeks. After 4 weeks, primary tumors and lungs are collected for analysis (FIGS. 16a and 16b). Tumor volumes are measured daily (p<0.001) in FIG. 16c.

4T1 cells = experiment: Extracellular vesicle concentration, Nanosight nanoparticle analyzer, 4T1 cells; format: cell-based, mouse; settings: 1 μM
Procedure: The current PD-L1 and PD1 therapies apply PD-L1 or PD1 monoclonal antibodies to block the PD-L1/PD1 signaling, which results in cytotoxic T cells recognizing and killing the tumor cells. […] First, flow cytometry-based quantification of plasma membrane levels of PD-L1 in 4T1 cells treated with or without 6J1 (1 μM) for 24 h. 4T1 cells are treated with or without 6J1 (1 μM) for 24 h. The supernatant is collected, and the concentration of extracellular vesicle is determined using a Nanosight nanoparticle analyzer in FIG. 8b. The exosomes are also collected and subjected to western blot analysis of the EVs marker and PD-L1 in FIG. 8c.
To assess whether the in vivo antitumor growth effect of 6J1 is related to its effect on PD-L1 in 4T1 cells, inventors knock out PD-L1 via CRISPR/Cas9 in 4T1 cells (FIG. 10a). 4T1-NC or 4T1-PD-L1 knockout cells are treated with or without 6J1 (1 μM) for 24 h. The supernatant is collected, and the concentration of extracellular vesicle is determined using a Nanosight nanoparticle analyzer. The exosomes are also collected and subjected to western blot analysis of the EVs marker and PD-L1. […] Inventors then transplant control or PD-L1-knockout 4T1 cells into the fat pad of syngeneic female Balb/c mice. The mice are randomly divided (n=5 per group) and treated with either buffer or 6J1 (30 mg/kg, daily) via oral gavage.
Therefore, it is possible that the increased exosomal PD-L1 secretion induced by 6J1 may still suppress the tumor-infiltrating T cell cytotoxicity in vivo, even though 6J1 reduces the cell surface expression level of PD-L1 on the tumor cells. To evaluate the role of exosomal PD-L1 in the tumor microenvironment and tumor progression in mice, inventors knock out Rab27a in 4T1 cells to inhibit the secretion of exosomes. 4T1-shNC or 4T1-shRab27A cells are treated with or without 6J1 (1 μM). The supernatant is collected, and the concentration of extracellular vesicle is determined using a Nanosight nanoparticle analyzer. […] Inventors analyze the plasma membrane levels of PD-L1 in 4T1-shNC or 4T1-shRab27A cells treated with or without 6J1 (1 μM). […]

Question: `OCCOCCN(c1ccccc1)c1nc(N/N=C/c2cccc(I)c2)nc(N2CCOCC2)n1` [Compound 6J1] was tested. Which “6J1-induced exosomal PD-L1 secretion” value (PD-L1; ATG4B-, ATG7-, Beclin1- or VPS34-knockout HeLa cells) did it give?
Answer: fails to abolish

Question: What about the “6J1-induced exosomal PD-L1 secretion” value (PD-L1; ATG5- or LC3B-knockout HeLa cells) of the same compound?
Answer: Neither ATG5 nor LC3B knockout impairs

Question: What about the “exosomal PD-L1 level” value (PD-L1; HeLa cells, 48 h, ionomycin 1 μM, Bafilomycin A1 10 nM, Torin 1 100 nM, 6J1 1 μM) of the same compound?
Answer: increases PD-L1 level in exosomes

Question: What about the “tumor growth of mouse lung cancer” value (LL/2 cells) of the same compound?
Answer: significantly inhibits the tumor growth of mouse lung cancer

Question: And the “6J1-induced EVs secretion” value (4T1 cells; 4T1-shRab27A cells)?
Answer: significantly inhibits 6J1-induced EVs secretion

Question: And the “6J1-induced EVs secretion” value (4T1 cells; PD-L1-knockout 4T1 cells, 24 h)?
Answer: does not affect 6J1-induced EVs secretion
